Patent publication US12370235B2, “Synthetic, non-natural antimicrobial peptides inspired by Staphylococcus auricularis delta toxin” (University of Saskatchewan, priority 2021, dated 2025)
≈ marks a conversion by molar mass, not a printed value. Square brackets hold non-standard residues; d marks the D form. Ends that are not written are not given here. Peptide text beside a SMILES is read from it. Orn = NCCC[C@H](N)C(=O)O

Key:
[1] = system: Mannheimia haemolytica ATCC 33393; experiment: MIC, broth dilution; assay type: cell-based; conditions: for MIC M. haemolytica: M. haemolytica ATCC 33393
Protocol: (§1) MIC determination. MICs were measured using peptides with 95% purity. For bacterial studies, cation-adjusted Mueller Hinton (MH) broth was used as the growth medium whereas Yeast Peptone Dextrose (YPD; 10 g/L yeast extract, 20 g/L peptone, 20 g/L dextrose) was used for Candida spp. and other yeast. Microorganisms were diluted to an optical density of […] in MH or YPD broth and a 180 μl volume was mixed with 20 μl of peptide arrayed as a 2-fold dilution series in a flat-bottom 96-well microtitre plate. A control was performed using 20 μl of sterile water. Plates were incubated as standing cultures overnight at 37° C.
(§2) Determination of minimum inhibitory concentrations. The MICs were measured for bioactive peptides identified from the initial screen. For bacterial studies, cation-adjusted Mueller Hinton (MH) broth was used as the growth medium whereas YPD was used for C. albicans. Bacterial cultures were diluted to a OD value of 6×10^−4 in MH broth and a 180 μl volume was mixed with 20 μl of peptide arrayed as 2-fold dilution series in a 96-well plate. For the positive control, 20 μl of sterile water was used. Plates were incubated as standing cultures overnight at 37° C. The lowest peptide concentration that resulted no observed microbial growth after an overnight treatment was defined as the MIC.
The ability of STIP3 variants to inhibit the growth of Mannheimia haemolytica ATCC 33393 was evaluated. This included an alanine scan of STIP3-1 (FIG. 8 & Table 10) as well as 30 rationally-designed STIPs that were evaluated in the preceding Examples against other pathogens (Table 11). Substitutions at a greater number of sites were tolerated in the context of antimicrobial activity. Moreover, the inclusion of basic natural and unnatural amino acids (e.g. lysine, ornithine, and arginine) at positions 3, 4 and 11 (i.e. X1, X2, and X4 of SEQ ID NO: 32) to afford a more uniformly cationic peptide increased activity against M. haemolytica.

C. albicans MYA-2876 = experiment: MIC, YPD broth; assay type: cell-based, Candida albicans; conditions: for MIC C. albicans: Candida albicans MYA-2876
Protocol: as §1, §2

[2] = system: S. aureus ATCC BAA-42 (MRSA SCCmec type VI); experiment: MIC, broth dilution; assay type: cell-based, Staphylococcus aureus; conditions: Table 5; STIP3 variants, highest concentration 100 μg/mL
Protocol: as §1, §2

[3] = system: S. aureus ATCC BAA-41 (MRSA SCCmec type II); experiment: MIC, broth dilution; assay type: cell-based, Staphylococcus aureus; conditions: Table 5; STIP3 variants, highest concentration 100 μg/mL
Protocol: as §1, §2

[4] = system: S. aureus ATCC BAA-2094 (MRSA SCCmec type V); experiment: MIC, broth dilution; assay type: cell-based, Staphylococcus aureus; conditions: Table 5; STIP3 variants, highest concentration 100 μg/mL
Protocol: as §1, §2

[5] = system: S. aureus ATCC BAA-1683 (MRSA SCCmec type IV); experiment: MIC, broth dilution; assay type: cell-based, Staphylococcus aureus; conditions: Table 5; STIP3 variants, highest concentration 100 μg/mL
Protocol: as §1, §2

[6] = system: S. aureus ATCC BAA-2313 (MRSA SCCmec type XI); experiment: MIC, broth dilution; assay type: cell-based, Staphylococcus aureus; conditions: Table 5; STIP3 variants, highest concentration 100 μg/mL
Protocol: as §1, §2

[7] = system: S. aureus ATCC BAA-44 (MRSA SCCmec type I); experiment: MIC, broth dilution; assay type: cell-based, Staphylococcus aureus; conditions: Table 5; STIP3 variants, highest concentration 100 μg/mL
Protocol: as §1, §2

[8] = system: S. aureus ATCC 33592 (MRSA SCCmec type III); experiment: MIC, broth dilution; assay type: cell-based, Staphylococcus aureus; conditions: Table 5; STIP3 variants, highest concentration 100 μg/mL
Protocol: as §1, §2

S. aureus ATCC 29213 = experiment: MIC, broth dilution; assay type: cell-based, Staphylococcus aureus; conditions: for MIC (μg/mL) S. aureus: liquid broth; for MIC S. aureus: S. aureus ATCC 29213
Protocol: as §1, §2

Candida krusei AR 397 = experiment: MIC, YPD broth, CDC and FDA AR Candida isolate panel; assay type: cell-based; conditions: Table 9 below the line: only 200 or 100 μg/mL tested; values reported as 100 are ≤100 μg/mL
Protocol: as §1

[9] = system: Candida haemulonii AR 395; experiment: as above; assay type: cell-based; conditions: Table 9 below the line: only 200 or 100 μg/mL tested; values reported as 100 are ≤100 μg/mL
Protocol: as §1

[10] = system: Candida duobushaemulonii AR 391; experiment: as above; assay type: cell-based; conditions: Table 9 below the line: only 200 or 100 μg/mL tested; values reported as 100 are ≤100 μg/mL
Protocol: as §1

Kodamae ohmeri AR 396 = experiment: as above; assay type: cell-based; conditions: Table 9 below the line: only 200 or 100 μg/mL tested; values reported as 100 are ≤100 μg/mL
Protocol: as §1

[11] = system: Candida lusitaniae AR 398; experiment: as above; assay type: cell-based; conditions: Table 9 below the line: only 200 or 100 μg/mL tested; values reported as 100 are ≤100 μg/mL
Protocol: as §1

[12] = system: Candida haemulonii AR 393; experiment: as above; assay type: cell-based; conditions: Table 9 below the line: only 200 or 100 μg/mL tested; values reported as 100 are ≤100 μg/mL
Protocol: as §1

[13] = system: Candida duobushaemulonii AR 392; experiment: as above; assay type: cell-based; conditions: Table 9 below the line: only 200 or 100 μg/mL tested; values reported as 100 are ≤100 μg/mL
Protocol: as §1

[14] = system: Candida duobushaemulonii AR 394; experiment: as above; assay type: cell-based; conditions: Table 9 below the line: only 200 or 100 μg/mL tested; values reported as 100 are ≤100 μg/mL
Protocol: as §1

[15] = system: Saccharomyces cerevisiae AR 400; experiment: as above; assay type: cell-based; conditions: Table 9 below the line: only 200 or 100 μg/mL tested; values reported as 100 are ≤100 μg/mL
Protocol: as §1

[16] = system: Saccharomyces cerevisiae AR 399; experiment: as above; assay type: cell-based; conditions: Table 9 below the line: only 200 or 100 μg/mL tested; values reported as 100 are ≤100 μg/mL
Protocol: as §1

M. luteus ATCC 4698 = experiment: MIC, broth dilution; assay type: cell-based, Micrococcus luteus; conditions: for MIC (μg/mL) M. luteus: Table 4, liquid broth; for MIC M. luteus: M. luteus ATCC 4698
Protocol: as §1, §2

Molecule	MIC (μg/mL) M. luteus (M. luteus ATCC 4698) [µg/mL]	MIC (μg/mL) M. haemolytica ([1]; Table 10, liquid broth)	MIC (μg/mL) S. aureus (S. aureus ATCC 29213; Table 4)	MIC (μg/mL) S. aureus (S. aureus ATCC 29213; Table 10)	MIC M. luteus (M. luteus ATCC 4698) [µg/mL]	MIC M. haemolytica [1]	MIC C. albicans (C. albicans MYA-2876)	MIC S. aureus (S. aureus ATCC 29213)	also measured
CC[C@H](C)[C@H](NC(=O)[C@H](Cc1c[nH]c2ccccc12)NC(=O)[C@H](CCCN)NC(=O)[C@@H](NC(=O)[C@H](CC(C)C)NC(=O)[C@H](C)NC(=O)[C@H](CCCN)NC(=O)[C@@H](NC(=O)[C@@H](N)[C@@H](C)O)C(C)C)C(C)C)C(=O)N[C@@H](CC(C)C)C(=O)N[C@@H](CCCN)C(=O)N[C@H](C(=O)N[C@H](C(=O)N[C@@H](C)C(=O)N[C@@H](CCCN)C(=O)N[C@@H](Cc1ccccc1)C(=O)N[C@@H](C)C(=O)O)C(C)C)[C@@H](C)O [STIP3-22, TVXALVXWILXTVAXFA] (H-TV[Orn]ALV[Orn]WIL[Orn]TVA[Orn]FA-OH; N-terminus and C-terminus assumed)									MIC (μg/mL) M. haemolytica ([1]; Table 11, highest concentration 25 μg/mL): 6.25 µg/mL (≈ 3.36 µM); MIC C. albicans MYA-2876 (C. albicans MYA-2876; Table 8): > (> symbol indicates that no inhibition was observed at the highest concentration of peptide tested: 100 μg/mL); MIC S. aureus ATCC BAA 42 (VI) [2]: 25 µg/mL (≈ 13.4 µM); MIC S. aureus ATCC BAA 41 (II) [3]: 25 µg/mL (≈ 13.4 µM); MIC S. aureus ATCC BAA 2094 (V) [4]: 25 µg/mL (≈ 13.4 µM); MIC S. aureus ATCC BAA 1683 (IV) [5]: 25 µg/mL (≈ 13.4 µM); MIC S. aureus ATCC BAA 2313 (XI) [6]: 100 µg/mL (≈ 53.8 µM); MIC S. aureus ATCC BAA 44 (I) [7]: 25 µg/mL (≈ 13.4 µM); MIC S. aureus ATCC 33592 (III) [8]: 25 µg/mL (≈ 13.4 µM); MIC S. aureus ATCC 29213 (S. aureus ATCC 29213; Table 5, STIP3 variants, highest concentration 100 μg/mL): 25 µg/mL (≈ 13.4 µM); MIC (μg/mL) Candida krusei AR 397 (Candida krusei AR 397): ≤ 100 µg/mL; MIC (μg/mL) Candida haemulonii AR 395 [9]: > (values below the line were determined using two concentrations of peptide 200 or 100 μg/mL); MIC (μg/mL) Candida duobushaemulonii AR 391 [10]: > (values below the line were determined using two concentrations of peptide 200 or 100 μg/mL); MIC (μg/mL) Kodamae ohmeri AR 396 (Kodamae ohmeri AR 396): > (values below the line were determined using two concentrations of peptide 200 or 100 μg/mL); MIC (μg/mL) Candida lusitaniae AR 398 [11]: ≤ 100 µg/mL; MIC (μg/mL) Candida haemulonii AR 393 [12]: > (values below the line were determined using two concentrations of peptide 200 or 100 μg/mL); MIC (μg/mL) Candida duobushaemulonii AR 392 [13]: > (values below the line were determined using two concentrations of peptide 200 or 100 μg/mL); MIC (μg/mL) Candida duobushaemulonii AR 394 [14]: > (values below the line were determined using two concentrations of peptide 200 or 100 μg/mL); MIC (μg/mL) Saccharomyces cerevisiae AR 400 [15]: ≤ 100 µg/mL; MIC (μg/mL) Saccharomyces cerevisiae AR 399 [16]: ≤ 100 µg/mL
TAGGLVKWILDTVKKFA [V2A, TAGGLVKWILDTVKKFA]	50	100 µg/mL	> (> = >200 μg/mL (maximum concentration tested))	> (the use of > indicates an MIC > 200 μg/mL; the maximum concentration tested)					
TVGGAVKWILDTVKKFA [L5A, TVGGAVKWILDTVKKFA]	100	> (the use of > indicates an MIC > 200 μg/mL; the maximum concentration tested)	> (> = >200 μg/mL (maximum concentration tested))	> (the use of > indicates an MIC > 200 μg/mL; the maximum concentration tested)					
TVGGLAKWILDTVKKFA [V6A, TVGGLAKWILDTVKKFA]	50	100 µg/mL	> (> = >200 μg/mL (maximum concentration tested))	> (the use of > indicates an MIC > 200 μg/mL; the maximum concentration tested)					
TVGGLVAWILDTVKKFA [K7A, TVGGLVAWILDTVKKFA]	200	> (the use of > indicates an MIC > 200 μg/mL; the maximum concentration tested)	> (> = >200 μg/mL (maximum concentration tested))	> (the use of > indicates an MIC > 200 μg/mL; the maximum concentration tested)					
TVGGLVKAILDTVKKFA [W8A, TVGGLVKAILDTVKKFA]	100	200 µg/mL	> (> = >200 μg/mL (maximum concentration tested))	> (the use of > indicates an MIC > 200 μg/mL; the maximum concentration tested)					
TVGGLVKWALDTVKKFA [I9A, TVGGLVKWALDTVKKFA]	200	> (the use of > indicates an MIC > 200 μg/mL; the maximum concentration tested)	> (> = >200 μg/mL (maximum concentration tested))	> (the use of > indicates an MIC > 200 μg/mL; the maximum concentration tested)					
TVGGLVKWIADTVKKFA [L10A, TVGGLVKWIADTVKKFA]	200	200 µg/mL	> (> = >200 μg/mL (maximum concentration tested))	> (the use of > indicates an MIC > 200 μg/mL; the maximum concentration tested)					
TVGGLVKWILDTAKKFA [V13A, TVGGLVKWILDTAKKFA]	50	200 µg/mL	200 µg/mL						
TVGGLVKWILDTVKKAA [F16A, TVGGLVKWILDTVKKAA]	200	> (the use of > indicates an MIC > 200 μg/mL; the maximum concentration tested)	> (> = >200 μg/mL (maximum concentration tested))	> (the use of > indicates an MIC > 200 μg/mL; the maximum concentration tested)					
TVKSFVNLILDTVKKYAK [STIP8-1]					100	> (the use of > indicates an MIC >200 μg/mL; the maximum concentration tested)	100 µg/mL	> (the use of > indicates an MIC >200 μg/mL; the maximum concentration tested)	
TVKSFVNLILKTVKKYAK [STIP8-2]					6.25	100 µg/mL	100 µg/mL	> (the use of > indicates an MIC >200 μg/mL; the maximum concentration tested)	
TVKSFVNLILKTVKKYAK-NH2 [STIP8-3]					3.13	50 µg/mL	> (the use of > indicates an MIC >200 μg/mL; the maximum concentration tested)	> (the use of > indicates an MIC >200 μg/mL; the maximum concentration tested)	
TVTKFVKLIAETVKKFTK [STIP9-1]					50	200 µg/mL	100 µg/mL	> (the use of > indicates an MIC >200 μg/mL; the maximum concentration tested)	
TVTKFVKLIAKTVKKFTK [STIP9-2]					6.25	100 µg/mL	25 µg/mL	> (the use of > indicates an MIC >200 μg/mL; the maximum concentration tested)	
TVTKFVKLIAKTVKKFTK-NH2 [STIP9-3]					3.13	100 µg/mL	100 µg/mL	> (the use of > indicates an MIC >200 μg/mL; the maximum concentration tested)	
